Data from patent US20210163471A1, “PROGRANULIN MODULATORS AND METHODS OF USING THE SAME” (ARKUDA THERAPEUTICS, priority 2017, published 2021).

Tested on: BV-2 (mouse microglia) cells
Experiment: progranulin secretion from BV-2 cells, mouse progranulin ELISA of conditioned media
Assay type: cell-based
Details: BV-2 cells, 16 hours incubation, 8-point curves starting at 10 μM; assay run v2 (same protocol, different assay); read-out: PRGN v2 (EC50, progranulin secretion)
Experimental: BV-2 cells are split the day before plating into a 96 well plate format at approximately 80%. Cells should be plated the day before and allowed for 1 hour attachment period and for 16 hour incubation. […] Standard ELISA kits to measure PGRN are available from vendors such as Adipogen, R&D, and Biovendor.
Compound potency was determined by measuring progranulin secretion from BV-2 (mouse microglia) cells. BV-2 cells were grown in RPMI with 2 mM L-glutamine supplemented with 10% fetal bovine serum. On the day of the assay, cells were plated in 96-well plates at a density of 30,000 cells/well in RPMI (Roswell Park Memorial Institute media)/L-glutamine supplemented with 2% Fetal clone serum II (plating media) and left to adhere for 1 hour. Following attachment to the plate, media was replaced with treatment (8-point curves in half-log dilutions starting at 10 μM) in plating media and incubated for 16 hours. Secreted progranulin was measured from a 1:10 dilution of the conditioned media using the R&D Systems mouse progranulin ELISA kit (cat #DY2557) and following the manufacturer's instructions.

`O=C(O[C@@H]1CN2CCC1CC2)N1CCc2ccccc2[C@@H]1COc1ccc(F)cc1` [Compound 1134] and `O=C(O[C@@H]1CN2CCC1CC2)N1CCc2ccccc2[C@H]1COc1ccc(F)cc1` [Compound 1135] cannot be ordered by EC50: > 10 µM for the first, > 10 µM for the second.

Compared with `CC1(C)[C@@H](OC(=O)N2CCc3ccccc3[C@@H]2c2ccc(F)cc2)C2CCN1CC2` [Compound 1144], `CC1(C)[C@H](OC(=O)N2CCc3ccccc3[C@@H]2c2ccc(F)cc2)C2CCN1CC2` [Compound 1145] is lower in EC50: > 10 µM for the first, 0.57 µM for the second. The second is the more potent here.

Same assay, conditions: Mus musculus, BV-2, 16 h, BV-2 cells, 16 hours incubation, 8-point curves starting at 10 μM; assay run v1; read-out: PRGN v1 (EC50, progranulin secretion)

Going from `O=C(N[C@@H]1CN2CCC1CC2)N1CCc2cccnc2[C@H]1c1ccc(Cl)cc1` [Compound 1122] to `CS(=O)(=O)N1CC([C@H]2c3ccccc3CCN2C(=O)N[C@@H]2CN3CCC2CC3)C1` [Compound 1123], the EC50 rises from 3.13 µM to > 10 µM. The first is the more potent here.

In the case of `CS(=O)(=O)N1CC([C@@H]2c3ccccc3CCN2C(=O)N[C@@H]2CN3CCC2CC3)C1` [Compound 1124], the EC50 is reported as > 10 µM.

Same assay, conditions: Mus musculus, BV-2, 16 h, BV-2 cells, 16 hours incubation, 8-point curves starting at 10 μM; assay run v2 (same protocol, different assay); read-out: PRGN v2 (EC50, progranulin secretion)

Going from `O=C(N[C@@H]1CN2CCC1CC2)N1CCc2cccnc2[C@H]1c1ccc(Cl)cc1` [Compound 1122] to `CN(C(=O)N1CCc2ccccc2[C@@H]1c1ccc(F)cc1)[C@@H]1CN2CCC1CC2` [Compound 1130], the EC50 falls from > 10 µM to 1.03 µM.

`CS(=O)(=O)N1CC([C@H]2c3ccccc3CCN2C(=O)N[C@@H]2CN3CCC2CC3)C1` [Compound 1123] and `CS(=O)(=O)N1CC([C@@H]2c3ccccc3CCN2C(=O)N[C@@H]2CN3CCC2CC3)C1` [Compound 1124] cannot be ordered by EC50: > 10 µM for the first, > 10 µM for the second.

`O=C(Cc1ccccc1)N1CCc2ccccc2[C@@H]1c1ccc(F)cc1` [Compound 1125, (S)-1-(1-(4-fluorophenyl)-3,4-dihydroisoquinolin-2(1H)-yl)-2-phenylethanone] and `CN(C(=O)N1CCc2ccccc2[C@@H]1c1ccc(F)cc1)[C@H]1CN2CCC1CC2` [Compound 1131] cannot be ordered by EC50: > 10 µM for the first, > 10 µM for the second.

Going from `O=S(=O)(C[C@@H]1CN2CCC1CC2)N1CCc2ccccc2[C@@H]1c1ccc(F)cc1` [Compound 1136] to `O=S(=O)(C[C@H]1CN2CCC1CC2)N1CCc2ccccc2[C@@H]1c1ccc(F)cc1` [Compound 1137], the EC50 rises from 1.7 µM to 4.41 µM (2.6-fold).

First: O=S(=O)(C[C@@H]1CN2CCC1CC2)N1CCc2ccccc2[C@@H]1c1ccccc1 [Compound 1140]
Second: O=S(=O)(C[C@@H]1CN2CCC1CC2)N1CCc2ccccc2[C@H]1c1ccccc1 [Compound 1141]
The EC50 of the first is higher: > 10 µM for the first, 3.36 µM for the second. The second is the more potent here.

`O=S(=O)(C[C@H]1CN2CCC1CC2)N1CCc2ccccc2[C@@H]1c1ccccc1` [Compound 1142] and `O=S(=O)(C[C@H]1CN2CCC1CC2)N1CCc2ccccc2[C@H]1c1ccccc1` [Compound 1143] cannot be ordered by EC50: > 10 µM for the first, > 10 µM for the second.

Same assay, conditions: Mus musculus; BV-2 cells, 16 hours incubation, 8-point curves starting at 10 μM; assay run v2 (same protocol, different assay); read-out: PRGN v2 (EC50, progranulin secretion)

First: O=C(O[C@@H]1CN2CCC1CC2)N1CCc2ccccc2[C@@H]1c1ccc(C(F)(F)F)cc1 [Compound 1126]
Second: O=C(O[C@@H]1CN2CCC1CC2)N1CCc2ccccc2[C@H]1c1ccc(C(F)(F)F)cc1 [Compound 1127]
The EC50 of the first is lower: 8.6 µM for the first, > 10 µM for the second. The first is the more potent here.

Compared with `O=C(O[C@@H]1CN2CCC1CC2)N1CCc2ccccc2[C@@H]1c1ccc(OC(F)(F)F)cc1` [Compound 1128], `O=C(O[C@@H]1CN2CCC1CC2)N1CCc2ccccc2[C@H]1c1ccc(OC(F)(F)F)cc1` [Compound 1129] is 1.7-fold higher in EC50: 2.6 µM for the first, 4.35 µM for the second. The first is the more potent here.

First: Cc1nc2cc([C@H]3c4ccccc4CCN3C(=O)O[C@@H]3CN4CCC3CC4)ccc2s1 [Compound 1132]
Second: Cc1nc2cc([C@@H]3c4ccccc4CCN3C(=O)O[C@@H]3CN4CCC3CC4)ccc2s1 [Compound 1133]
The EC50 of the first is higher: > 10 µM for the first, 9.28 µM for the second. The second is the more potent here.

`Cc1nc2ccc([C@H]3c4ccccc4CCN3C(=O)O[C@@H]3CN4CCC3CC4)cc2o1` [Compound 1138] and `Cc1nc2ccc([C@@H]3c4ccccc4CCN3C(=O)O[C@@H]3CN4CCC3CC4)cc2o1` [Compound 1139] cannot be ordered by EC50: > 10 µM for the first, > 10 µM for the second.

`COCCOCCOCCNC(=O)c1ccc([C@H]2c3ccccc3CCN2C(=O)O[C@@H]2CN3CCC2CC3)cc1` [Compound 1146] and `COCCOCCOCCNC(=O)c1ccc([C@@H]2c3ccccc3CCN2C(=O)O[C@@H]2CN3CCC2CC3)cc1` [Compound 1147] cannot be ordered by EC50: > 10 µM for the first, > 10 µM for the second.

Going from `CC1(C)[C@@H](OC(=O)N2CCc3ccccc3[C@@H]2c2cccc(F)c2F)C2CCN1CC2` [Compound 1148] to `CC1(C)C(OC(=O)N2CCc3ccccc3[C@H]2c2cccc(F)c2F)C2CCN1CC2` (some centres unmarked) [Compound 1149], the EC50 falls from > 10 µM to 0.43 µM. The second is the more potent here.

Same assay, conditions: mouse BV2 cells

In the case of `O=C(O[C@H]1CN2CCC1CC2)N1CCc2ccccc2[C@@H]1c1ccccc1` [Solifenacin, solifenacin, reference compound], the “secretion of progranulin from mouse BV2 cells” value is reported as “causes the secretion of progranulin from mouse BV2 cells”.
